Test results: patent US20130296346A1, “DIPHENYL-AMINE DERIVATIVES: USES, PROCESS OF SYNTHESIS AND PHARMACEUTICAL COMPOSITIONS” (Faes Farma, S.A., priority 2010, published 2013)
Entries after “also recorded” stand apart in the source; their conditions may differ. Marks after values point to notes of the source that are not given here.

What was measured:
EHEB cells = assay: Chronic lymphocytic leukaemia xenograft animal model; assay type: in vivo, CB17-SCID mice
Method: The chronic lymphocytic leukaemia (CLL) EHEB cell line was cultured in RPMI-1640 medium containing 10% (v/v) heat-inactivated fetal bovine serum, 2 mM L-glutamine, 100 U/ml penicillin, and 100 μg/ml streptomycin at 37° C. in humidified 95% air and 5% CO2. Cells were periodically tested for Mycoplasma infection and found to be negative. CB17-severe combined immunodeficiency (SCID) mice (Charles River laboratories, Lyon, France), kept and handled according to institutional guidelines, complying with Spanish legislation under a 12/12 h light/dark cycle at a temperature of 22° C., received a standard diet and acidified water ad libitum. CB17-SCID mice were inoculated subcutaneously into their lower dorsum with 1.5×10^7 EHEB cells in 100 μl PBS and 100 μl Matrigel basement membrane matrix (Becton Dickinson). When tumors were palpable, mice were randomly assigned into cohorts of 10 mice each, receiving i.v. administration (3 times/week) of the compound at the tail. The volume used for each i. v. administration was […] rendering a final drug concentration of 2.5 mg/kg (body weight). Mice i. v. administered with an equal volume of vehicle were run in parallel. The shortest and longest diameter of the tumor were measured with calipers, and tumor volume (10^−3 cm^3) was calculated using the following standard formula: (the shortest diameter)^2×(the longest diameter)×0.5. Animals were sacrificed, according to institutional guidelines, when the diameter of their tumors reached 3 cm or when significant toxicity was observed. Animal body weight and any sign of morbidity were monitored. Drug treatment lasted for 41 days. Then, tumor xenografts were isolated, measured and weighed, and a necropsy analysis involving tumors and distinct organs was carried out. All values were expressed as means±SD. Statistical differences between groups were assessed using the Mann-Whitney test or the Student's t-test. A p value of less than 0.05 was considered statistically significant. Results are depicted in FIG. 1.

[1] = system: human patient chronic lymphocytic leukaemia cells; assay: Viability of chronic lymphocytic leukaemia cells from patients; assay type: cell-based; conditions: cells with different ZAP70 expression
Method: A panel of 6 human patient chronic lymphocytic leukaemia cells was chosen showing different patterns of ZAP70 expression (see cytogenetic changes notated in the table 5). Cells were incubated in the presence of compound 3. Results of this study, showing the viability are depicted in FIG. 3.

EHEB (CLL) = assay: Apoptosis, sub-G1 peak by flow cytometry; assay type: cell-based, human; conditions: 10 μM, 24 h
Method: (§1) Incubation of Compound 3 with different human hematological cancer cell lines, including CLL, MM, acute T-cell and acute myeloid leukaemia cell lines, induced apoptosis, as assessed by the appearance of cells with a DNA content less than G1, characteristic of early apoptosis (sub-G1 peak; after 6-9 h treatment). More than 20% apoptosis was induced after 24 h treatment of 10 μM Compound 3 with EHEB (CLL), RPMI-8226 (MM), Jurkat (acute T-cell leukaemia) and HL-60 (acute myeloid leukaemia) cells.
(§2) Induction of apoptosis in EHEB cells by Compound 3 (FIG. 7A): EHEB cells were incubated for the indicated times with 10 μM Compound 3, and apoptosis was then quantitated as percentage of cells in the sub-G1 region in cell cycle analysis by flow cytometry. The position of the sub-G1 peak (hypodiploidy), integrated by apoptotic cells, as well as the G0/G1 and G2/M peaks are indicated by arrows. Untreated control cells were run in parallel. The percentage of cells with a DNA content less than G1 (sub-G1) is indicated in each histogram. The experiment shown is representative of three performed. Briefly, cells (5×10^5) were centrifuged and fixed overnight in 70% ethanol at 4° C. Cells were washed 3 times with PBS, incubated for 1 h with 1 mg/ml RNaseA and 20 μg/ml propidium iodide at room temperature, and then analyzed for cell cycle with a Becton Dickinson FACS Calibur flow cytometer (San Jose, Calif.). Quantitation of apoptotic cells was calculated as the percentage of cells in the sub-G1 region (hypodiploidy) in cell cycle analysis.

[2] = system: HL-60 (acute myeloid leukaemia); assay: Apoptosis, sub-G1 peak by flow cytometry; assay type: cell-based, human; conditions: 10 μM, 24 h
Method: as §1, §2

[3] = system: Jurkat (acute T-cell leukaemia); assay: Apoptosis, sub-G1 peak by flow cytometry; assay type: cell-based, human; conditions: 10 μM, 24 h
Method: as §1, §2

RPMI-8226 (MM) = assay: Apoptosis, sub-G1 peak by flow cytometry; assay type: cell-based, human; conditions: 10 μM, 24 h
Method: as §1, §2

[4] = 2.5 mg/kg i.v. 3 times/week, 41 days
[5] = ex vivo after 41 days, 2.5 mg/kg i.v. 3 times/week
[6] = vs control, 2.5 mg/kg i.v. 3 times/week, 41 days

## Fc1ccc(CNCCCC=C(c2ccccc2)c2ccccc2)cc1 [Compound 3, (5,5-diphenyl-pent-4-enyl)-(4-fluoro-benzyl)-amine hydrocloride]
EHEB cells; [4]
  CLL tumor growth compared with the control group: inhibited CLL tumor growth; also recorded: stadistically significant
  necropsy analysis of distinct organs: No significant events or changes in the distinct organs
EHEB cells; compared to drug-free tumor-bearing control mice
  vascularization of isolated tumors: very little vascularization
EHEB cells; [5]
  Tumor Volume: 0.487 cm^3
  Tumor Weight: 0.932 g
EHEB cells; [6]
  Inhibition (%) of Tumor Volume: 74.88** %
  Inhibition (%) of Tumor Weight: 50.69** %
[1]
  decrease of viability of patient CLL cells: more significant in cell with a low expression of ZAP70
EHEB (CLL)
  apoptosis: More than 20%
[2]
  apoptosis: More than 20%
[3]
  apoptosis: More than 20%
RPMI-8226 (MM)
  apoptosis: More than 20%
